Laboratory results published in PubChem BioAssay (NCI).
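Assay format: 96-well plates, 48-hour exposure. The concentration for full growth arrest is given as TGI.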 Where a SMILES comes first, the peptide text is derived from it. The star is where a group is joined. Cbz = O=C(OCc1ccccc1)*; Boc = CC(C)(C)OC(=O)*; OSu = O=C1CCC(=O)N1O*; Bn = c1ccc(C*)cc1

Assays:
Assay in all cases: DTP human tumour cell line panel, 48 h
[1] = system: ACHN renal
[2] = system: NCI-H460 lung
[3] = system: SNB-75 CNS
[4] = system: A549 NSCLC
[5] = system: MDA-MB-435
[6] = system: SK-MEL-5 melanoma
[7] = system: UACC-257 melanoma
[8] = system: SW-620 colon
[9] = system: T-47D breast
[10] = system: SF-295 CNS
[11] = system: OVCAR-8 ovarian
[12] = system: CAKI-1 renal

Row | Compound | TGI [1] [µM] | TGI [2] [µM] | TGI [3] [µM] | TGI [4] [µM] | TGI [5] [µM] | TGI [6] [µM] | TGI [7] [µM] | TGI [8] [µM] | TGI [9] [µM] | TGI [10] [µM] | TGI [11] [µM] | TGI [12] [µM]
1 | CN(NC(=O)c1cccs1)C1=NCCCCN1 | > 100 | > 100 | > 100 | > 100 | > 100 | > 100 | > 100 | > 100 | > 100 | > 100 | > 100 | –
2 | CN(C)S(=O)(=O)/N=C/c1cccc(/C=N/S(=O)(=O)N(C)C)c1 | > 100 | > 100 | 92.8 | > 100 | > 100 | > 100 | > 100 | > 100 | > 100 | > 100 | > 100 | > 100
3 | CC1Oc2c(c(=O)oc3ccccc23)[C@@]1(C)CC1C[C@H](C)C(=O)O1 (some centres undefined) | 65.8 | – | > 100 | > 100 | 47.8 | > 100 | > 100 | > 100 | > 100 | > 100 | > 100 | 38.1
4 | CC(=O)NC(CCC(=O)C=[N+]=N)C(=O)O (centres undefined) | > 100 | > 100 | > 100 | > 100 | > 100 | > 100 | > 100 | > 100 | > 100 | > 100 | > 100 | –
5 | COC1=CCC=C(C[C@@H]2NCCc3cc(OC)c(OC)cc32)C1 | > 100 | > 100 | > 100 | > 100 | – | > 100 | > 100 | > 100 | – | > 100 | > 100 | > 100
6 | CC(=O)NC1=C(NCCN(C)C)C(=O)c2ccccc2C1=O | > 50 | > 50 | > 50 | 48.8 | – | 14.1 | 16.8 | > 50 | – | > 50 | 31.6 | –
7 | c1ccc(CNCCCCNCCCNCc2ccccc2)cc1 | 29.3 | 30.2 | 49.4 | 36.2 | 34.7 | 32.5 | 32 | 31.8 | > 100 | > 100 | – | 40.3
8 | COC(=O)[C@@H]1CN(C(C)=O)C(=O)N1C(=O)OCc1ccccc1 | > 100 | > 100 | – | > 100 | > 100 | > 100 | > 100 | > 100 | > 100 | > 100 | > 100 | > 100
9 | CC(NC(=O)C(N)CC(=O)O)NC(=O)C1CCC1 (centres undefined) | > 100 | > 100 | > 100 | > 100 | > 100 | > 100 | > 100 | > 100 | > 100 | – | > 100 | > 100
10 | Cc1ccc(Nc2c(C#N)[n+]([O-])c3cc(Cl)ccc3[n+]2[O-])cc1 | > 100 | > 100 | > 100 | > 100 | > 100 | – | > 100 | > 100 | > 100 | > 100 | > 100 | > 100
11 | C=C(C)[C@@]1(OC(=O)c2cc([N+](=O)[O-])cc([N+](=O)[O-])c2)C[C@@H]2CCCC[C@@H]21 | > 100 | > 100 | > 100 | > 100 | – | – | > 100 | > 100 | > 100 | > 100 | > 100 | > 100
12 | CC(C)(C)OC(=O)NCCc1cccc2c1oc1c(CCC(=O)O)cccc12 | > 100 | > 100 | > 100 | > 100 | – | > 100 | > 100 | > 100 | – | > 100 | > 100 | > 100
13 | O=S(=O)(O)c1ccc(N=Nc2c(O)ccc3cc(Br)ccc23)cc1 | > 100 | – | > 100 | > 100 | > 100 | > 100 | > 100 | > 100 | > 100 | > 100 | > 100 | > 100
14 | N#Cc1c(N)[nH]c(=S)c(C#N)c1-c1ccccc1 | > 100 | > 100 | > 100 | > 100 | – | > 100 | > 100 | > 100 | > 100 | > 100 | > 100 | > 100
15 | O=c1ccn(C2OC(CO)C(O)C2[Se]c2ccccc2)c(=O)[nH]1 (centres undefined) | > 100 | > 100 | > 100 | > 100 | > 100 | > 100 | 14.2 | > 100 | – | > 100 | > 100 | > 100
16 | O=C(Nc1ccccc1)N(C1=NCC(CI)S1)c1ccc(F)cc1F (centres undefined) | > 100 | – | > 100 | > 100 | > 100 | > 100 | 84 | > 100 | > 100 | > 100 | > 100 | 66.9
17 | COC1C=COC2(C)Oc3c(C)c(O)c4c(O)c(c(/C=N/N5CCN(N)CC5)c(O)c4c3C2=O)NC(=O)C(C)=CC=CC(C)C(O)C(C)C(O)C(C)C(OC(C)=O)C1C (centres undefined) | > 100 | – | > 100 | > 100 | – | > 100 | > 100 | > 100 | – | > 100 | > 100 | > 100
18 | Cc1nc(N/N=C/c2ccccc2Cl)[nH]c(=O)c1CCO | > 100 | > 100 | 41.4 | > 100 | > 100 | > 100 | > 100 | > 100 | > 100 | 96 | 51.7 | –
19 | O=C(O)c1ccc(NC(NC(=O)C(C(F)(F)F)C(F)(F)F)(C(F)(F)F)C(F)(F)F)cc1 | > 100 | – | > 100 | > 100 | > 100 | > 100 | > 100 | > 100 | > 100 | – | > 100 | > 100

Row | Compound | TGI [1] [µM] | TGI [2] [µM] | TGI [3] [µM] | TGI [4] [µM] | TGI [5] [µM] | TGI [6] [µM] | TGI [7] [µM] | TGI [8] [µM] | TGI [9] [µM] | TGI [10] [µM] | TGI [11] [µM] | TGI [12] [µM]
20 | O=C(O)CCc1ccc2c(c1)C(=O)CC2 | > 100 | > 100 | – | > 100 | > 100 | > 100 | > 100 | > 100 | > 100 | > 100 | > 100 | –
21 | CC(C)(C)OC(=O)NC(Cc1ccc(OCc2ccccc2)cc1)C(=O)NC(CCCCNC(=O)OCc1ccccc1)C(=O)ON1C(=O)CCC1=O (centres undefined) (Boc-Tyr(Bn)-Lys(Cbz)-OSu; configuration not given here) | 42.6 | 50.8 | 54.9 | > 100 | – | 48 | > 100 | 41.1 | – | – | 51.9 | –
22 | CC1(C)C(O)C[C@@H](O)[C@@]2(C)C1CC[C@]1(C)C2C[C@@H](O)[C@@H]2C([C@@]3(C)CC[C@@H](C(C)(C)O)O3)CCC21C (some centres undefined) | 35.8 | 35.9 | 29.7 | 37 | – | 22.6 | > 54.1 | 30.5 | – | 30.2 | 36.6 | 42.1
23 | CO/N=C(\C(=O)N(C)n1cnnc1)c1csc(NC(c2ccccc2)(c2ccccc2)c2ccccc2)n1 | > 10 | > 10 | > 10 | > 10 | – | > 10 | > 10 | > 10 | > 10 | > 10 | > 10 | > 10
24 | Cc1ccc(S(=O)(=O)N2CCSCCN(S(=O)(=O)c3ccc(C)cc3)CCN(S(=O)(=O)c3ccc(C)cc3)CC2)cc1 | – | > 100 | – | > 100 | > 100 | > 100 | – | > 100 | > 100 | > 100 | > 100 | –
25 | CCc1c(Cc2[nH]c(Cc3[nH]c(C=O)c(C)c3CC)c(CC)c2CC)[nH]c(C=O)c1C | > 100 | > 100 | > 100 | > 100 | – | > 100 | > 1 | > 100 | – | > 100 | > 100 | > 100
26 | C=C(C)[C@H]1C=C[C@@H](OC(=O)c2cccnc2)[C@@]23CO[C@@](C)([C@H](OC(=O)c4cccnc4)[C@@]4(OC(C)=O)C[C@H](C)[C@H](OCCC)[C@@H]4[C@H]2OC(C)=O)[C@H]13 | > 15 | > 15 | > 15 | – | > 15 | > 15 | > 15 | > 15 | > 15 | > 15 | > 15 | > 15
27 | COc1cc(OC)c2nc(C)c3c(c2c1)NCC3 | 26.2 | 12 | 26.6 | 34.1 | 21.6 | 21.6 | 15.9 | 19.1 | – | 28.9 | 19 | –
28 | CC(C)(C)Nc1noc(=O)n1C(C)(C)C | > 100 | > 100 | > 100 | > 100 | > 100 | > 100 | > 100 | > 100 | – | > 100 | > 100 | > 100
29 | CCc1n[nH]c(=O)n1/N=C/c1ccc(C)cc1 | > 100 | > 100 | – | > 100 | > 100 | > 100 | > 100 | > 100 | > 100 | > 100 | > 100 | > 100
30 | Oc1ccc(N=C2CCC(=C(c3ccccc3)c3ccc(Nc4ccc(O)cc4)cc3)CC2)cc1 | > 100 | > 100 | – | > 100 | > 100 | > 100 | > 100 | > 100 | – | > 100 | > 100 | > 100
31 | C[n+]1c(-c2ccc(/C=N/NC(=O)C(=O)N/N=C/c3ccc(-c4cn5ccsc5[n+]4C)cc3)cc2)cn2ccsc21 | > 100 | > 100 | > 100 | > 100 | > 100 | > 100 | > 100 | > 100 | > 100 | > 100 | > 100 | –
32 | CC1=CC[C@@]2(CO)[C@@H]([C@@H]1C)[C@H]1CC[C@@H]3[C@@]4(C)CC[C@H](O)C(C)(C)[C@@H]4CC[C@@]3(C)[C@]1(C)C[C@@H]2O | 91.7 | > 100 | – | > 100 | > 100 | 42.1 | > 100 | > 100 | 75.1 | 58.4 | 55 | > 100
33 | CC(=O)OC1CCCn2c1nc1c2C(=O)C(C)=C(N2CC2)C1=O (centres undefined) | 1.25 | 0.296 | 0.808 | 2.77 | – | 0.351 | 0.587 | 0.927 | – | 0.665 | 1.37 | 0.687
34 | C=CCSC1=N/C(=C\c2cccs2)C(=O)N1CC=C | > 100 | > 100 | – | > 100 | > 100 | > 100 | > 100 | > 100 | 69.3 | > 100 | > 100 | > 100
35 | C=C[C@@H]1C[C@]2(C(=O)OC)Cc3nc4ccccc4nc3CC(C(=O)OC)=C2O1 | > 100 | > 100 | – | > 100 | > 100 | > 100 | > 100 | > 100 | > 100 | > 100 | > 100 | > 100
36 | Nc1cc(N2CCCC2)nc(=O)n1-c1ccccc1 | > 100 | > 100 | > 100 | > 100 | > 100 | > 100 | > 100 | > 100 | – | > 100 | > 100 | > 100
37 | COc1cccc2c1OC(c1ccc(C#N)cc1)C([N+](=O)[O-])=C2 (centres undefined) | 3.49 | 4.92 | 7.32 | 7.03 | 2.72 | 2.87 | 2.68 | 2.8 | – | 18.5 | 5.28 | 4.89
38 | C1=C(c2ccccc2)Nc2nnnn2C1c1ccccc1 (centres undefined) | 57.2 | > 100 | – | > 100 | 47 | > 100 | > 100 | 55.9 | > 100 | 88.5 | > 100 | > 100
